# In patent US20220112187A1, “PYRAZOLOPYRIDINE AMINE COMPOUNDS FOR THE TREATMENT OF AUTOIMMUNE DISEASE” (Hoffmann-La Roche Inc., priority 2018, published 2022):
# Biological target: T1, human TLR9 (Homo sapiens, UniProt Q9NR96)
# T1 sequence (Q9NR96 26-1032): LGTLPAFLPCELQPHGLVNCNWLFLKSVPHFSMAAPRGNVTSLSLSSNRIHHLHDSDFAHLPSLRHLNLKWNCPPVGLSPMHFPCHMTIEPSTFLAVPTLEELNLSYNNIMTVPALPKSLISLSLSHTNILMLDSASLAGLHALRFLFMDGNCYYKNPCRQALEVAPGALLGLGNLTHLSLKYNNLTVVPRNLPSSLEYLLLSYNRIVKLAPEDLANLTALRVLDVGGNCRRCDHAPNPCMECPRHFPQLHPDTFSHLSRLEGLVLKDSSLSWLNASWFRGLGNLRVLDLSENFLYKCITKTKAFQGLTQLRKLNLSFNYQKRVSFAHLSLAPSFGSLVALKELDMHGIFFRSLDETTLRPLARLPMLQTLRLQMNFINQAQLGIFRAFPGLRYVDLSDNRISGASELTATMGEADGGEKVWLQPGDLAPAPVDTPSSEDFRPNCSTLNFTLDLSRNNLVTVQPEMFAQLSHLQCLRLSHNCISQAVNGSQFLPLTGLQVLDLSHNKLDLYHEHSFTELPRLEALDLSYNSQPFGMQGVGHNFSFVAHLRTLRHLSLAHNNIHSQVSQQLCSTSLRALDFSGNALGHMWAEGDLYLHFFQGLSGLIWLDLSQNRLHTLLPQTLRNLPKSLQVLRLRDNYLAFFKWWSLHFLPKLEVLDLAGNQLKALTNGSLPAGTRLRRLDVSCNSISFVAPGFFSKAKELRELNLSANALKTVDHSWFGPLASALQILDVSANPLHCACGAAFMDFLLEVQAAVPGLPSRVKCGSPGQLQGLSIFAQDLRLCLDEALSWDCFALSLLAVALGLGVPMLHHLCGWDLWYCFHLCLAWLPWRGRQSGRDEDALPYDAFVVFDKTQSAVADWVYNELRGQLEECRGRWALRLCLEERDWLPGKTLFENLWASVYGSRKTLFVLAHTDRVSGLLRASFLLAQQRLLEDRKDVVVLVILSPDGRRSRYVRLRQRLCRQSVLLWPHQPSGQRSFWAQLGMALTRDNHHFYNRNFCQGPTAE
# Assay: HEK293-Blue-hTLR-9 cells assay (SEAP reporter, ODN2006 stimulation)
# Type: cell-based
# Conditions: HEK293-Blue-hTLR9 cells, ODN2006 ligand, 20 hrs incubation
# Text: A stable HEK293-Blue-hTLR-9 cell line was purchased from InvivoGen (Cat. #: hkb-htlr9, San Diego, Calif., USA). These cells were originally designed for studying the stimulation of human TLR9 by monitoring the activation of NF-κB. A SEAP (secreted embryonic alkaline phosphatase) reporter gene was placed under the control of the IFN-β minimal promoter fused to five NF-κB and AP-1-binding sites. The SEAP was induced by activating NF-κB and AP-1 via stimulating HEK-Blue hTLR9 cells with TLR9 ligands. Therefore the reporter expression was declined by TLR9 antagonist under the stimulation of a ligand, such as ODN2006 (Cat. #: tlr1-2006-1, Invivogen, San Diego, Calif., USA), for incubation of 20 hrs. The cell culture supernatant SEAP reporter activity was determined using QUANTI-Blue™ kit (Cat. #: rep-qb1, Invivogen, San Diego, Calif., USA) at a wavelength of 640 nm, a detection medium that turns purple or blue in the presence of alkaline phosphatase.
# HEK293-Blue-hTLR9 cells were incubated at a density of 250,000˜450,000 cells/mL in a volume of 170 μL in a 96-well plate in Dulbecco's Modified Eagle's medium (DMEM) containing 4.5 g/L glucose, 50 U/mL penicillin, […], […], 2 mM L-glutamine, 10% (v/v) heat-inactivated fetal bovine serum with addition of 20 μL test compound in a serial dilution in the presence of final DMSO at 1% and 10 μL of 20 uM ODN2006 in above DMEM, perform incubation under 37° C. in a CO2 incubator for 20 hrs. Then 20 μL of the supernatant from each well was incubated with 180 μL Quanti-blue substrate solution at 37° C. for 2 hrs and the absorbance was read at 620-655 nm using a spectrophotorneter. The signalling pathway that TLR9 activation leads to downstream NF-κB activation has been widely accepted, and therefore similar reporter assay was modified for evaluating TLR9 antagonist.
row,Compound,IC50
1,"CC1CC(N)CCN1C[C@H]1CN(c2ccc(C#N)n3nccc23)C[C@@H](C)O1 (stereo partly drawn) [Example 51, 4-[(2S,6R)-2-[(4-amino-2-methyl-1-piperidyl)methyl]-6-methyl-morpholin-4-yl]pyrazolo[1,5-a]pyridine-7-carbonitrile]",230 nM
2,"C[C@@H]1CN(c2ccc(C#N)n3nccc23)C[C@H](CN2CCC3(CCCN3)CC2)O1 [Example 53, 4-[(2S,6R)-2-(1,8-diazaspiro[4.5]decan-8-ylmethyl)-6-methyl-morpholin-4-yl]pyrazolo[1,5-a]pyridine-7-carbonitrile]",160 nM
3,"C[C@@H]1CN(c2ccc(C#N)n3nccc23)C[C@H](CN2CCC(N3CCCC3)CC2)O1 [Example 54, 4-[(2R,6S)-2-methyl-6-[(4-pyrrolidin-1-yl-1-piperidyl)methyl]morpholin-4-yl]pyrazolo[1,5-a]pyridine-7-carbonitrile]",510 nM
4,"C[C@@H]1CN(c2ccc(C#N)n3nccc23)C[C@H](CN2CCC23CNC3)O1 [Example 55, 4-[(2S,6R)-2-(1,6-diazaspiro[3.3]heptan-1-ylmethyl)-6-methyl-morpholin-4-yl]pyrazolo[1,5-a]pyridine-7-carbonitrile]",25000 nM
5,"C[C@@H]1CN(c2ccc(C#N)n3nccc23)C[C@H](CN2C3CNCC2COC3)O1 [Example 57, 4-[(2R,6S)-2-methyl-6-(3-oxa-7,9-diazabicyclo[3.3.1]nonan-9-ylmethyl)morpholin-4-yl]pyrazolo[1,5-a]pyridine-7-carbonitrile]",10000 nM
6,"C[C@@H]1CN(c2ccc(C#N)n3nccc23)C[C@H](CN2C3COCC2CC(N)C3)O1 (stereo partly drawn) [Example 58, 4-[(2S,6R)-2-[(7-amino-3-oxa-9-azabicyclo[3.3.1]nonan-9-yl)methyl]-6-methyl-morpholin-4-yl]pyrazolo[1,5-a]pyridine-7-carbonitrile]",390 nM
7,"C[C@@H]1CN(c2ccc(C#N)n3nccc23)C[C@H](CN2CCNCC2Cc2ccccc2)O1 (stereo partly drawn) [Example 59, 4-[(2S,6R)-2-[(2-benzylpiperazin-1-yl)methyl]-6-methyl-morpholin-4-yl]pyrazolo[1,5-a]pyridine-7-carbonitrile]",1500 nM
8,"C[C@@H]1CN(c2ccc(C#N)n3nccc23)C[C@H](CN2CCC3(CC2)CNCCO3)O1 [Example 60, 4-[(2R,6S)-2-methyl-6-(1-oxa-4,9-diazaspiro[5.5]undecan-9-ylmethyl)morpholin-4-yl]pyrazolo[1,5-a]pyridine-7-carbonitrile]",180 nM
9,"C[C@@H]1CN(c2ccc(C#N)n3nccc23)C[C@H](CN2CCCC3NCCCC32)O1 (stereo partly drawn) [Example 64, 4-[(2S,6R)-2-(3,4,4a,5,6,7,8,8a-octahydro-2H-1,5-naphthyridin-1-ylmethyl)-6-methyl-morpholin-4-yl]pyrazolo[1,5-a]pyridine-7-carbonitrile]",2200 nM
10,"C[C@@H]1CN(c2ccc(C#N)n3nccc23)C[C@H](CN2C3CCCC2CC(N)C3)O1 (stereo partly drawn) [Example 65, Endo-4-[(2S,6R)-2-[(3-amino-9-azabicyclo[3.3.1]nonan-9-yl)methyl]-6-methyl-morpholin-4-yl]pyrazolo[1,5-a]pyridine-7-carbonitrile]",140 nM
11,"C[C@@H]1CN(c2ccc(C#N)n3nccc23)C[C@H](CN2C3CCCC2CC(N)C3)O1 (stereo partly drawn) [Example 66, Exo-4-[(2S,6R)-2-[(3-amino-9-azabicyclo[3.3.1]nonan-9-yl)methyl]-6-methyl-morpholin-4-yl]pyrazolo[1,5-a]pyridine-7-carbonitrile]",120 nM
12,"C[C@@H]1CN(c2ccc(C#N)n3ncc(F)c23)C[C@H](CN2CCCC3(CCNCC3)C2)O1 [Example 67, 4-[(2S,6R)-2-(2,9-diazaspiro[5.5]undecan-2-ylmethyl)-6-methyl-morpholin-4-yl]-3-fluoro-pyrazolo[1,5-a]pyridine-7-carbonitrile]",87 nM
13,"C[C@@H]1CN(c2ccc(C#N)n3ncc(F)c23)C[C@H](CN2CCCC3(CCNC3)C2)O1 (stereo partly drawn) [Example 68, 3-fluoro-4-[(2S,6R)-2-(2,7-diazaspiro[4.5]decan-7-ylmethyl)-6-methyl-morpholin-4-yl]pyrazolo[1,5-a]pyridine-7-carbonitrile]",110 nM
14,"C[C@@H]1CN(c2ccc(C#N)n3ncc(F)c23)C[C@H](CN2CCC3(CCCNC3)C2)O1 (stereo partly drawn) [Example 69, 3-fluoro-4-[(2S,6R)-2-(2,9-diazaspiro[4.5]decan-2-ylmethyl)-6-methyl-morpholin-4-yl]pyrazolo[1,5-a]pyridine-7-carbonitrile]",130 nM
15,"C[C@@H]1CN(c2ccc(C#N)n3nccc23)C[C@H](CN2CCOC3(CCNCC3)C2)O1 [Example 71, 4-[(2R,6S)-2-methyl-6-(1-oxa-4,9-diazaspiro[5.5]undecan-4-ylmethyl)morpholin-4-yl]pyrazolo[1,5-a]pyridine-7-carbonitrile]",510 nM
16,"C[C@@H]1CN(c2ccc(C#N)n3nccc23)C[C@H](CN2CCC(N)(c3ccccc3)CC2)O1 [Example 73, 4-[(2S,6R)-2-[(4-amino-4-phenyl-1-piperidyl)methyl]-6-methyl-morpholin-4-yl]pyrazolo[1,5-a]pyridine-7-carbonitrile]",220 nM

# The next lines start with the values.
row,IC50,Compound
1,120 nM,"C[C@@H]1CN(c2ccc(C#N)n3nccc23)C[C@H](CN2CC3CCNCC3C2)O1 (stereo partly drawn) [Example 49, 4-[(2S,6R)-2-(1,3,3a,4,5,6,7,7a-octahydropyrrolo[3,4-c]pyridin-2-ylmethyl)-6-methyl-morpholin-4-yl]pyrazolo[1,5-a]pyridine-7-carbonitrile]"
2,260 nM,"C[C@@H]1CN(c2ccc(C#N)n3nccc23)C[C@H](CN2CC3CNCCC32)O1 (stereo partly drawn) [Example 52, 4-[(2S,6R)-2-(3,7-diazabicyclo[4.2.0]octan-7-ylmethyl)-6-methyl-morpholin-4-yl]pyrazolo[1,5-a]pyridine-7-carbonitrile]"
3,850 nM,"C[C@@H]1CN(c2ccc(C#N)n3nccc23)C[C@H](CN2CC3CCNCC32)O1 (stereo partly drawn) [Example 56, 4-[(2S,6R)-2-(3,8-diazabicyclo[4.2.0]octan-8-ylmethyl)-6-methyl-morpholin-4-yl]pyrazolo[1,5-a]pyridine-7-carbonitrile]"
4,6100 nM,"C[C@@H]1CN(c2ccc(C#N)n3nccc23)C[C@H](CN2CCCC3CNCC32)O1 (stereo partly drawn) [Example 61, 4-[(2S,6R)-2-(2,3,4,4a,5,6,7,7a-octahydropyrrolo[3,4-b]pyridin-1-ylmethyl)-6-methyl-morpholin-4-yl]pyrazolo[1,5-a]pyridine-7-carbonitrile]"
5,2400 nM,"C[C@@H]1CN(c2ccc(C#N)n3nccc23)C[C@H](CN2CC[C@@H]3CNCC32)O1 (stereo partly drawn) [Example 62, 4-[(2R,6S)-2-methyl-6-[[cis-(3aR,6aR)-3,3a,4,5,6,6a-hexahydro-2H-pyrrolo[3,4-b]pyrrol-1-yl]methyl]morpholin-4-yl]pyrazolo[1,5-a]pyridine-7-carbonitrile]"
6,5900 nM,"C[C@@H]1CN(c2ccc(C#N)n3nccc23)C[C@H](CN2CCC[C@@H]3NCCC32)O1 (stereo partly drawn) [Example 63, 4-[(2R,6S)-2-methyl-6-[[cis-(3aS,7aS)-1,2,3,3a,5,6,7,7a-octahydropyrrolo[3,2-b]pyridin-4-yl]methyl]morpholin-4-yl]pyrazolo[1,5-a]pyridine-7-carbonitrile]"
7,200 nM,"C[C@@H]1CN(c2ccc(C#N)n3nccc23)C[C@H](CN2CCC3NCC3C2)O1 (stereo partly drawn) [Example 70, 4-[(2S,6R)-2-(3,7-diazabicyclo[4.2.0]octan-3-ylmethyl)-6-methyl-morpholin-4-yl]pyrazolo[1,5-a]pyridine-7-carbonitrile]"
